{"source": "patent EP3981864A1", "about": "“DETERGENT COMPOSITION” (priority 2020, dated 2022)", "key": {"[1]": {"test_system": "Pseudomonas alcaligenes αDOX (SEQ ID NO: 12), fatty acid alpha-dioxygenase, U3BA19, N-terminal His-tag variant SEQ ID NO: 271 (comparative)", "test": "Alpha-dioxygenase activity assay (oxygen consumption, TON)", "type": "biochemical", "details": "fatty acid 100 µM, enzyme 6 ppm, 50 mM HEPES pH 9.0, 37°C; initial rate of oxygen consumption / enzyme concentration", "description": "Pseudomonas alcaligenes αDOX (SEQ ID NO: 12) is a fatty acid alpha-dioxygenase that converts fatty acids into the corresponding 2-hydroperoxy fatty acids and is included as a comparative example of the present invention. A codon optimized gene (SEQ ID NO: 270) encoding for an alpha-dioxygenase variant (SEQ ID NO: 271), including an N-terminal amino acid sequence containing a His-tag was designed and synthesized by Genscript. After gene synthesis, the protein was expressed and purified. In brief, the complete synthetic gene sequence was subcloned into a pET30a vector using the NdeI/HindIII cloning sites. For heterologous expression, Escherichia coli BL21 (DE3) cells were transformed with the recombinant plasmid and a single colony was inoculated into LB medium containing kanamycin (50 mg/L). A pre-starter culture was then inoculated into flasks containing Magic Media (Thermo Fisher, Catalog # K6803) supplemented with kanamycin (50 mg/L) and incubated at 16 °C for 72 h. At an OD600nm = 0.5 - 1.0, 5-aminolevulinic acid (final concentration 0.5 mM) was added. Cells were harvested by centrifugation at 5000 rpm and 4°C and the pellet was lysed using a bacterial cell lysis buffer (B-PER - Themo Fisher, Waltham, MA). After centrifugation, the supernatant was collected, and the protein was purified by one-step purification using HisPur™ Ni-NTA Spin Columns (Thermo Scientific, Catalog # 88226) and standard protocols known in the art. The protein was concentrated using a 10 kDa MW cutoff Amicon Ultra centrifugal filter unit (Millipore Sigma, Catalog# UFC901024), followed by desalting using a disposable PD-10 desalting column (GE Healthcare Life Sciences, Catalog# 17085101) and a buffer containing 50 mM Tris-HCl, 500 mM NaCl, and 10% Glycerol at pH 8.0. […]\nReactions with alpha-dioxygenases were performed as follows. […] The reaction was incubated for up to 10 minutes at 37°C with 200 rpm agitation and the conversion was monitored using an oxygen sensor. The TON (in s-1) were calculated as the ratio between the initial rate of oxygen consumption (in µM/s) and the concentration of enzyme (in µM). […]"}, "[2]": {"target": "T1, Arabidopsis thaliana αDOX (SEQ ID NO: 3), fatty acid alpha-dioxygenase, Q9SGH6, variant with N-terminal His-tag, MBP tag and TEV site SEQ ID NO: 253 (Arabidopsis thaliana, UniProt Q9SGH6)", "T1 construct": "His-tag (N); MBP tag (N); TEV protease cleavage site (N); made in house; host or cells: Escherichia coli BL21 (DE3), modified pET28a", "T1 sequence (Q9SGH6 1-639)": "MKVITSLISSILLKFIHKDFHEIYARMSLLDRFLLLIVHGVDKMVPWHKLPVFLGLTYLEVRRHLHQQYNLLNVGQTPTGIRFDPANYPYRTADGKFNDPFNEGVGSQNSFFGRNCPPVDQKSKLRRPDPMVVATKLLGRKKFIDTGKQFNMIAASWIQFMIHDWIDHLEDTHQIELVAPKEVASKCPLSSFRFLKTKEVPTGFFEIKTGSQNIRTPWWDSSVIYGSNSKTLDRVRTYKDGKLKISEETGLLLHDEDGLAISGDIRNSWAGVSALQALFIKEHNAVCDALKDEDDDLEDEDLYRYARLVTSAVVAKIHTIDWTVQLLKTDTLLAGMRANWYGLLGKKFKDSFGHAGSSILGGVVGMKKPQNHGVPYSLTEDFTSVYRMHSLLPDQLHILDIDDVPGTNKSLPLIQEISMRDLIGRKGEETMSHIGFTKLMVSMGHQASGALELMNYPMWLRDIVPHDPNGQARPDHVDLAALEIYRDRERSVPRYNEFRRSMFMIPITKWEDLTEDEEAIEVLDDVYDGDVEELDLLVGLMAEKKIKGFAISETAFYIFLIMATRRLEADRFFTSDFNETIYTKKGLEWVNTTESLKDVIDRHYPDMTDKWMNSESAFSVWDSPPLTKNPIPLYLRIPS", "test": "Alpha-dioxygenase activity assay (oxygen consumption, TON)", "type": "biochemical", "details": "fatty acid 100 µM, enzyme 6 ppm, 50 mM HEPES pH 9.0, 37°C; initial rate of oxygen consumption / enzyme concentration", "description": "Arabidopsis thaliana αDOX (SEQ ID NO: 3) is a fatty acid alpha-dioxygenase that converts fatty acids into the corresponding 2-hydroperoxy fatty acids and is included as an example of the present invention. A codon optimized gene (SEQ ID NO: 252) encoding for an alpha-dioxygenase variant was designed and synthesized by Genscript. After synthesis, the gene was cloned into a modified version of pET28a, such as the final plasmid encoded for a αDOX variant including an N-terminal amino acid sequence containing a His-tag, an MBP tag, and a TEV protease cleavage site (SEQ ID NO: 253). For heterologous expression, Escherichia coli BL21 (DE3) cells were transformed with the recombinant plasmid and a single colony was inoculated into LB medium containing kanamycin (50 mg/L). A pre-starter culture was then inoculated into flasks containing TB Media supplemented with kanamycin (50 mg/L) and incubated at 37 °C. At an OD600nm about 4, IPTG (final concentration 0.1 mM) and 5-aminolevulinic acid (final concentration 0.5 mM) were added to the culture and further incubated at 16 °C for 16 h. Cells were harvested by centrifugation and the pellet was lysed. After centrifugation, the supernatant was collected, and the protein was purified by one-step purification using Ni-NTA affinity chromatography and standard protocols known in the art. The protein was stored in 1×PBS buffer containing 10% Glycerol and at pH 7.4. The purified enzyme was stored at -80 °C until use.\nReactions with alpha-dioxygenases were performed as follows. An aliquot of fatty acid in ethanol (final concentration 100 µM) was resuspended in buffer (50 mM HEPES at pH 9.0) in a scintillation vial. The reaction was started by addition of enzyme (final concentration 6 ppm). The reaction was incubated for up to 10 minutes at 37°C with 200 rpm agitation and the conversion was monitored using an oxygen sensor. The TON (in s-1) were calculated as the ratio between the initial rate of oxygen consumption (in µM/s) and the concentration of enzyme (in µM). […]"}}, "data": [{"smiles": "CCCCCCCC/C=C\\CCCCCCCC(=O)O", "note": "[Oleic Acid]", "values": [{"measurement": "Oleic Acid, TON", "setting": "[1]", "result": 0.00, "unit": "s⁻¹"}, {"measurement": "Oleic Acid, TON", "setting": "[2]", "result": 0.14, "unit": "s⁻¹"}]}, {"smiles": "CCCCCCCCCCCCCCCCCC(=O)O", "note": "[Stearic Acid]", "values": [{"measurement": "Stearic Acid, TON", "setting": "[1]", "result": 0.21, "unit": "s⁻¹"}, {"measurement": "Stearic Acid, TON", "setting": "[2]", "result": 0.47, "unit": "s⁻¹"}]}, {"smiles": "CCCCCCCCCCCCCCCC(=O)O", "note": "[Palmitic Acid]", "values": [{"measurement": "Palmitic Acid, TON", "setting": "[1]", "result": 0.36, "unit": "s⁻¹"}, {"measurement": "Palmitic Acid, TON", "setting": "[2]", "result": 1.01, "unit": "s⁻¹"}]}]}
